Experimental data from patent US20240166765A1, “INFLAMMATORY DISEASE TREATMENT USING ANTI-TISSUE FACTOR ANTIBODIES” (Iconic Therapeutics LLC, priority 2020, published 2024).

Assays:
TF:FVIIa = biological target: T1, TF:FVIIa (Homo sapiens, UniProt P13726); test: FXa conversion assay on MDA-MB-231 cells; type: cell-based; conditions: concentrations of 25, 50, and 100 nM; Example 26
T1 construct: host or cells: MDA-MB-231
Experimental: (§1) To evaluate the ability of TF:FVIIa to convert FX into FXa in the presence of human antibodies against TF, 5×10^4 MDA-MB-231 cells (ATCC, Manassas, VA, USA) were plated into tissue culture-treated black 96-well plates (Greiner Bio-One, Monroe, NC, USA). […] Upon reconstitution of the binary TF:FVIIa complex with a final concentration of 20 nM of FVIIa, cells were incubated for 5 min at 37° C.
as §1, with “Briefly,” for “To evaluate the ability of TF:FVIIa to convert FX into FXa in the presence of human antibodies against TF,”, “USA) and cultured overnight.” for “USA).”

[1] = biological target: T2, human TF (TF-positive MDA-MB-231 cells) (Homo sapiens, UniProt P13726); test: Antibody competition assay with 39A on MDA-MB-231 cells; type: binding; conditions: 20 nM 39A-Alexa488
T2 construct: Human TF-positive cancer cell lines A431 and MDA-MB-231; host or cells: MDA-MB-231
T2 sequence (P13726 33-295): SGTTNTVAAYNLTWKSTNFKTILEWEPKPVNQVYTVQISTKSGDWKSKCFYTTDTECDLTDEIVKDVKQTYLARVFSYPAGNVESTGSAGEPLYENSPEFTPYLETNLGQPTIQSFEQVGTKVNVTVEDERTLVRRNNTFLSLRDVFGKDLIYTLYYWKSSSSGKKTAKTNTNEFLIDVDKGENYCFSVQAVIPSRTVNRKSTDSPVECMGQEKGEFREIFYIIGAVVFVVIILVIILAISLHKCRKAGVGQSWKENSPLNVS
Experimental: Alexa Fluor antibodies were generated using Alexa Fluor 488 5-sulfo-[…] esters (ThermoFisher Scientific) following manufacturer's protocol. Excess Alexa Fluor dye was removed from the antibody dye conjugate preparations by gel filtration (ThermoFisher Scientific).
After another 1 hr incubation on ice, cells were washed, stained with a viability dye, and analyzed by flow cytometry. The Alexa488 fluorescence data from viable cells was summarized using median fluorescence intensity.

TF-positive A431 cells = test: Cytotoxicity assay of ADCs, A431 cells; type: cell-based, human; conditions: Primary ADC
Experimental: To evaluate cytotoxicity of ADCs, TF-positive A431 and HPAF-II cells were plated in 384-well plates (Greiner Bio-One, Monroe, NC, USA) at 4×10^3 cells per well in 40 μL of media. Anti-TF antibodies conjugated to MC-vc-PAB-MMAE were serially diluted starting at 5 nM. Plates were incubated for 3 to 4 days, followed by lysis in CellTiter-Glo (CTG) assay reagent (Promega, Madison, WI, USA). CTG luminescence was measured on an Envision plate reader and the mean and standard deviation of 4 replicates were graphed in Prism.
To evaluate ADC cytotoxicity, A431 cells were plated in 384-well plates (Greiner Bio-One). Anti-TF antibodies conjugated to MC-vc-PAB-MMAE were serially diluted as shown. The TF-specific ADCs were added to A431 cells, with either a 72 h incubation or a 4 h incubation followed by removal of excess ADC and culture for another 68 h. A431 cells were lysed in CTG assay reagent after treatment. CTG luminescence was measured and the mean and standard deviation of 4 replicates graphed in Prism.

[2] = tested on: thrombin generation (relipidated TF in normal pooled plasma); test: Thrombin generation assay (TGA) without antibody pre-incubation; type: biochemical, human; conditions: Ab conc. 10 nM, Table 44
Experimental: (§2) The TGA assay was performed using the calibrated-automated-thrombogram (CAT) instrument manufactured and distributed by STAGO. The test method design was equivalent to a standard CAT assay measurement, except that the plasma source was NPP in citrate/CTI. […] Relipidated TF was added to a 96-well assay plate, followed by addition of the antibody/NPP mixture. After a 10-min incubation or directly after combining the relipidated TF with antibody/NPP, thrombin generation was initiated by the addition of calcium and the thrombin substrate. The STAGO software was used to report the following parameters: Peak IIa (highest thrombin concentration generated [nM]); Lag Time (time to IIa generation [min]); ETP (endogenous thrombin potential, area under the curve [nM×min]); and ttPeak (time to Peak IIa [min]).
as §2, with “was normal pooled plasma (NPP)” for “was NPP”, “in citrate supplemented with corn trypsin inhibitor (citrate/CTI).” for “in citrate/CTI.”
(§3) TGA assay was performed using the calibrated-automated-thrombogram (CAT) instrument manufactured and distributed by STAGO (Diagnostica Stago SAS, Asnieres sur Seine, France). […] The anti-TF antibodies were titrated at 0, 10, 50 and 100 nM and mixed with NPP in citrate/CTI. Relipidated TF was added to a 96-well assay plate, followed by addition of the antibody/NPP mixture. After a 10-min incubation or directly after combining the relipidated TF with antibody/NPP, thrombin generation was initiated by the addition of calcium and the thrombin substrate. The STAGO software was used to report the following parameters: Peak IIa (highest thrombin concentration generated on the thrombin generation curve [nM]); Lag Time (time from assay start to the moment 10 nM of thrombin is formed [min]); ETP (endogenous thrombin potential, area under the curve [nM×min]); and ttPeak (time from assay start to Peak IIa [min]). […] As used herein, the term “thrombin generation assay” (TGA) refers to the TGA used in this example.

[3] = tested on: thrombin generation (relipidated TF in normal pooled plasma); test: Thrombin generation assay (TGA) with 10 min antibody pre-incubation; type: biochemical, human; conditions: Ab conc. 10 nM
Experimental: as §2
as §2, with “was normal pooled plasma (NPP)” for “was NPP”, “in citrate supplemented with corn trypsin inhibitor (citrate/CTI).” for “in citrate/CTI.”
as §3

[4] = biological target: T2, human TF (TF-positive MDA-MB-231 cells); test: FVIIa competition assay (FVII-Fc Alexa488) on MDA-MB-231 cells; type: binding; conditions: highest concentration of antibody; Example 26
Experimental: To evaluate competition between FVIJa and the human antibodies against TF, TF-positive MIDA-MB-231 cells (ATCC, Manassas, VA, USA) were first incubated for 1 hr on ice with a titration of the human antibodies against TF. Subsequently, a final concentration of 20 nM of FVII-Fc conjugated to Alexa488 was added to the antibody cell mixture. After another 1 hr incubation on ice, cells were washed, stained with a viability dye, and analyzed by flow cytometry. The Alexa488 fluorescence data from viable cells was summarized using median fluorescence intensity.
Subsequently, FVII-Fc conjugated to Alexa488 was added to the antibody-cell mixture at a final concentration of 20 nM. After another 1 hr incubation on ice, cells were washed, stained with a viability dye, and analyzed by flow cytometry. The Alexa488 fluorescence data from viable cells was summarized using median fluorescence intensity (MFI).

T1 sequence (P13726 33-295): as above

With TF-011 as the substance, how does the “inhibited FX conversion by” value (TF:FVIIa) read?
Its value is 57-59%.

And the “% 39A binding” value [1]?
Its value is “reduced”.

What about the IC50 (TF-positive A431 cells; 4 hr, followed by washout, FIG. 20B) of the same substance?
Its IC50 is 170 pM.

And the IC50 (TF-positive A431 cells; 4 hr, followed by washout, FIG. 21A)?
The IC50 was 90 pM.

What about the IC50 (TF-positive A431 cells; Continuous treatment, FIG. 20A) of the same substance?
The IC50 was 50 pM.

What about the ETP [2] of the same substance?
Its ETP is 1714 nM·min.

What about the ETP [3] of the same substance?
The ETP was 792 nM·min.

What about the “competition with FVII” value [4] of the same substance?
Its value is “effectively competed with FVII”.
